Data set [1] can be described thus: log P by HPLC on a reversed-phase column (C 18), EEC Directive 79/831 Annex V.A8. The class given is physicochemical. The conditions noted are these: Table 1, HPLC C 18, 40° C., 0.1% aqueous formic acid and acetonitrile, several values = mixture of 2 or more isomers; for chromatographic logP: reversed-phase HPLC column (C 18). On the procedure: In table 1, the log P values were determined in accordance with EEC Directive 79/831 Annex V.A8 by HPLC (High Performance Liquid Chromatography) on a reversed-phase column (C 18), using the method described below:
Temperature: 40° C.; Mobile phases: 0.1% aqueous formic acid and acetonitrile; linear gradient from 10% acetonitrile to 90% acetonitrile.
Calibration was carried out using unbranched alkan-2-ones (comprising 3 to 16 carbon atoms) with known log P values (determination of the log P values by the retention times using linear interpolation between two successive alkanones). lambda-max-values were determined using UV-spectra from 200 nm to 400 nm and the peak values of the chromatographic signals.

The next data set has as its system Sphaerotheca fuliginea. Briefly: In vivo preventive test on Sphaerotheca fuliginea (powdery mildew on cucurbits). The conditions noted are these: 500 ppm, gherkin plants, grading 12 days after contamination. How it is done:
(§1) The active ingredients tested are prepared by homogenization in a mixture of acetone/tween/DMSO and then diluted with water to obtain the desired active material concentration.
Gherkin plants (“Vert petit de Paris” variety), sown in starter cups on a 50/50 peat soil-pozzolana substrate and grown at 24° C., are treated at the Z11 cotyledon stage by spraying with the active ingredient prepared as described above. Plants, used as controls, are treated with the mixture of acetone/tween/DMSO/water not containing the active material.
After 24 hours, the plants are contaminated by spraying the cotyledons with an aqueous suspension of Sphaerotheca fuliginea spores (100 000 spores per mL). The spores are collected from infected plants. The contaminated gherkin plants are incubated at about 20° C. and at 70-80% relative humidity.
(§2) Grading (% of efficacy) is carried out 12 days after the contamination, in comparison with the control plants.
Under these conditions, good (at least 70%) to total protection is observed at a dose of 500 ppm of active ingredient with the following compounds from table A: […]

A further data set relates to Puccinia recondita. Briefly: In vivo preventive test on Puccinia recondita (brown rust on wheat). The conditions noted are these: 500 ppm of active ingredient; wheat plants, preventive spray; grading 12 days after contamination. How it is done:
(§3) The active ingredients tested are prepared by homogenization in a mixture of acetone/tween/DMSO, and then diluted with water to obtain the desired active material concentration.
(§4) Wheat plants (“Scipion” variety), sown in starter cups on a 50/50 peat soil pozzolana substrate and grown at 22° C., are treated at the 1 leaf stage (10 cm height) by spraying with the active ingredient prepared as described above. Plants, used as controls, are treated with the mixture of acetone/tween/DMSO/water not containing the active material.
After 24 hours, the plants are contaminated by spraying the leaves with an aqueous suspension of Puccinia recondita spores (100 000 spores per mL). The spores are collected from an infected plant and are suspended in water containing 2.5 mL/L of Tween 80 at 10%. The contaminated wheat plants are incubated for 24 hours at 20° C. and at 100% relative humidity, and then for 10 days at 20° C. and at 70-80% relative humidity.
as §2
Under these conditions, good (at least 70%) to total protection is observed at a dose of 500 ppm of active ingredient with the following compounds from table I: […]

The test system of the next data set is Septoria tritici. As to the kind of experiment: In vivo preventive test on Septoria tritici (wheat). The following applies: 500 ppm of active ingredient; wheat plants, preventive spray; grading 24 days after contamination. How it is done:
as §3, §4
After 24 hours, the plants are contaminated by spraying the leaves with an aqueous suspension of cryopreserved Septoria tritici spores (500 000 spores per mL). The contaminated wheat plants are incubated for 72 hours at 18° C. and at 100% relative humidity, and then for 21 days at 90% relative humidity.
Grading (% of efficacy) is carried out 24 days after the contamination, in comparison with the control plants.
Under these conditions, good (at least 70%) to total protection is observed at a dose of 500 ppm of active ingredient with the following compounds from table J: […]

The subject of another data set is Botrytis cinerea. As to the kind of experiment: In vivo preventive test on Botrytis cinerea (grey mould), gherkin plants. The following applies: 500 ppm of active ingredient, preventive spray, grading 4 to 5 days after contamination. On the procedure:
as §1
Gherkin plants (“Vert petit de Paris” variety), sown in starter cups on a 50/50 peat soil pozzolana substrate and grown at 24° C., are treated at the Z11 cotyledon stage by spraying with the active ingredient prepared as described above. Plants, used as controls, are treated with the mixture of acetone/tween/DMSO/water not containing the active material.
After 24 hours, the plants are contaminated by spraying the cotyledons with an aqueous suspension of cryopreserved Botrytis cinerea spores (50 000 spores per mL). The spores are suspended in a nutrient solution composed of 10 g/L of PDB, 50 g/L of D-Fructose, 2 g/L of NH4NO3 and 1 g/L of KH2PO4. The contaminated gherkin plants are incubated at 17° C. and at 90% relative humidity.
Grading (% of efficacy) is carried out 4 to 5 days after the contamination, in comparison with the control plants.
Under these conditions, good (at least 70%) to total protection is observed at a dose of 500 ppm of active ingredient with the following compounds from table F: […]

Another data set deals with Uromyces appendiculatus. As to the kind of experiment: In vivo preventive test on Uromyces appendiculatus (bean rust). The conditions noted are these: bean plants. How it is done: as §3
After 24 hours, the plants are contaminated by spraying the leaves with an aqueous suspension of Uromyces appendiculatus spores (150 000 spores per mL). The spores are collected from infected plants and are suspended in water containing 2.5 mL/L of Tween 80 at 10%. The contaminated bean plants are incubated for 24 hours at 20° C. and at 100% relative humidity, and then for 10 days at 20° C. and at 70-80% relative humidity.
Grading (% of efficacy) is carried out 11 days after the contamination, in comparison with the control plants.

A further data set deals with Pyrenophora teres. Briefly: In vivo preventive test on Pyrenophora teres (barley). The following applies: barley plants, grading 14 days after contamination. How it is done: as §3
Barley plants (“Plaisant” variety), sown in starter cups on a 50/50 peat soil pozzolana substrate and grown at 22° C., are treated at the 1 leaf stage (10 cm height) by spraying with the active ingredient prepared as described above. Plants, used as controls, are treated with the mixture of acetone/tween/DMSO/water not containing the active material.
After 24 hours, the plants are contaminated by spraying the leaves with an aqueous suspension of Pyrenophora teres spores (12 000 spores per mL). The spores are collected from a 12-day-old culture.
The contaminated barley plants are incubated for 48 hours at 20° C. and at 100% relative humidity, and then for 12 days at 20° C. at 70-80% relative humidity.
Grading (% of efficacy) is carried out 14 days after the contamination, in comparison with the control plants.
Under these conditions, good (at least 70%) to total protection is observed at a dose of 500 ppm of active ingredient with the following compounds from table H1: […]

[2] abbreviates: 500 ppm of active ingredient, preventive spray, grading 11 days after contamination (table K1).
[3] abbreviates: dose 100 ppm, comparison with saturated analogues (table K2).
[4] abbreviates: dose 500 ppm, comparison with saturated analogues (table K2).
Setting [5] is: 500 ppm of active ingredient, preventive spray.

Consider `CC1CC=C(c2ccc(Cl)cc2CN(C(=O)c2c(C(F)F)nn(C)c2F)C2CC2)CC1` (racemic) [I.46], for which the logP in data set [1] was 5.36. For the same molecule, the Efficacy is recorded as 100% in the data set with Sphaerotheca fuliginea, 75% in the data set on Puccinia recondita and 86% in the data set with Septoria tritici.

Turning to `Cn1cc(C(=O)N(Cc2ccccc2C2=CCCC2)C2CC2)c(C(F)F)n1` [I.2], in data set [1], the lipophilicity (logP) is recorded as 3.63. For the same molecule, the Efficacy with Sphaerotheca fuliginea turned out to be 94%; in the data set on Botrytis cinerea, 100%; with Puccinia recondita, 94%; in the data set on Septoria tritici it was 88%; in the data set on Uromyces appendiculatus (setting [2]), 100%.

On to `Cn1nc(C(F)F)c(C(=O)N(Cc2ccccc2C2=CCCC2)C2CC2)c1F` [I.3], for which the logP in data set [1] turned out to be 4.06. Also, the Efficacy with Sphaerotheca fuliginea is listed as 100%; in the data set on Pyrenophora teres (Table H2, 100 ppm, preventive), 86%; in the data set on Puccinia recondita it was 98%; in the data set on Septoria tritici, 98%; in the data set on Uromyces appendiculatus (setting [2]), 100%; in the data set on Uromyces appendiculatus (setting [3]), 99%. The molecule also registered an Efficacy in the data set with Uromyces appendiculatus (setting [4]) of 100%.

On to `Cn1nc(C(F)F)c(C(=O)N(Cc2ccccc2C2=CCCC2)C2CC2)c1Cl` [I.4], for which the logP in data set [1] is 4.26. In addition, the Efficacy with Botrytis cinerea was 77%; with Puccinia recondita it was 100%; in the data set with Uromyces appendiculatus (setting [2]), 99%.

With `Cn1nc(C(F)F)c(C(=O)N(Cc2cc(C3=CCCC3)ccc2C2=CCCC2)C2CC2)c1F` [I.18], the logP in data set [1] is reported as 5.62. Also, in the data set on Botrytis cinerea, the Efficacy is given as 100%.

As for `CC(c1cc(F)ccc1C1=CCCC1)N(C(=O)c1c(C(F)F)nn(C)c1F)C1CC1` (stereo not shown) [I.25, N-{1-[2-(cyclopent-1-en-1-yl)-5-fluorophenyl]ethyl}-N-cyclopropyl-3-(difluoromethyl)-5-fluoro-1-methyl-1H-pyrazole-4-carboxamide], the chromatographic logP in data set [1] was determined as 4.34. Also, the Efficacy in the data set with Sphaerotheca fuliginea, with Botrytis cinerea, with Pyrenophora teres (setting [5]) and in the data set on Septoria tritici was 100% each time.

With `Cn1cc(C(=O)N(Cc2ccccc2C2=CCCCC2)C2CC2)c(C(F)F)n1` [I.27], the logP in data set [1] was 3.99. In addition, the Efficacy is on record as 98% in the data set on Sphaerotheca fuliginea; 100% in the data set on Botrytis cinerea; 88% in the data set on Puccinia recondita; 94% in the data set on Septoria tritici; 98% in the data set with Uromyces appendiculatus (setting [2]); 24% with Uromyces appendiculatus (setting [3]). In the data set on Uromyces appendiculatus (setting [4]), this molecule registered an Efficacy of 98%.

For the molecule `Cn1nc(C(F)F)c(C(=O)N(Cc2ccccc2C2=CCCCC2)C2CC2)c1F` [I.28], the logP in data set [1] was 4.49. In addition, the Efficacy with Sphaerotheca fuliginea came to 100%; with Botrytis cinerea it was 100%; with Pyrenophora teres (setting [5]), 79%; in the data set on Puccinia recondita, 100%; with Septoria tritici it was 94%; with Uromyces appendiculatus (setting [2]), 100%. Besides, the Efficacy with Uromyces appendiculatus (setting [3]) turned out to be 98%; with Uromyces appendiculatus (setting [4]), 100%.

Turning to `Cn1cc(C(=O)N(Cc2ccccc2C2=CCCCC2)C2CC2)c(C(F)F)c1` [I.30], the logP in data set [1] is given as 4.46. Also, the figures for the Efficacy in the data set with Sphaerotheca fuliginea, in the data set on Botrytis cinerea and with Uromyces appendiculatus (setting [2]) were 83%, 81% and 78%, respectively.

For `O=C(c1ccsc1I)N(Cc1ccccc1C1=CCCCC1)C1CC1` [I.31], in data set [1], the logP is reported as 5.22. In the data set with Botrytis cinerea, this molecule registered an Efficacy of 100%.

For `Cn1nc(C(F)F)c(C(=O)N(Cc2cc(C3=CCCCC3)ccc2Cl)C2CC2)c1F` [I.33], in data set [1], the logP worked out at 4.92. The Efficacy in the data set with Pyrenophora teres (Table H2, 100 ppm, preventive) came to 86%.

Regarding `Cn1nc(C(F)F)c(C(=O)N(Cc2cc(C3=CCCCC3)ccc2Cl)C2CC2)c1Cl` [I.34], the logP in data set [1] is reported as 5.14. Besides, in the data set with Pyrenophora teres (Table H2, 100 ppm, preventive), the Efficacy was determined as 79%.

Consider `Cn1nc(C(F)F)c(C(=S)N(Cc2cc(Cl)ccc2C2=CCCCC2)C2CC2)c1F` [I.43], for which the logP in data set [1] amounted to 5.56. The Efficacy in the data set on Sphaerotheca fuliginea turned out to be 80%; in the data set on Pyrenophora teres (setting [5]), 71%; in the data set on Puccinia recondita, 78%; in the data set with Septoria tritici, 97%; in the data set on Uromyces appendiculatus (setting [2]), 89%.

For `Cn1nc(C(F)F)c(C(=O)N(Cc2cc(F)ccc2C2=CCCCC2)C2CC2)c1Cl` [I.44, 5-chloro-N-[2-(cyclohex-1-en-1-yl)-5-fluorobenzyl]-N-cyclopropyl-3-(difluoromethyl)-1-methyl-1H-pyrazole-4-carboxamide], the chromatographic logP in data set [1] came to 4.69. For the same molecule, the results for the Efficacy in the data set with Puccinia recondita and with Septoria tritici were 81% and 79%, respectively.

Regarding `Cn1cc(C(=O)N(Cc2ccccc2C2=CCCCCC2)C2CC2)c(C(F)F)n1` [I.49], the logP in data set [1] turned out to be 4.44. The Efficacy with Sphaerotheca fuliginea is listed as 100%; with Botrytis cinerea, 100%; in the data set with Pyrenophora teres (setting [5]), 79%; in the data set with Puccinia recondita it was 81%; in the data set on Septoria tritici, 88%; with Uromyces appendiculatus (setting [2]), 99%.

`Cn1cc(C(=O)N(Cc2ccccc2C2=CCCCCC2)C2CC2)c(C(F)F)c1` [I.50]: the logP in data set [1] is 4.93. Besides, the Efficacy in the data set with Sphaerotheca fuliginea is recorded as 100%; with Botrytis cinerea it was 98%; in the data set on Puccinia recondita it was 81%; in the data set on Septoria tritici, 100%; in the data set on Uromyces appendiculatus (setting [2]), 99%.

Turning to `Cn1nc(C(F)F)c(C(=O)N(Cc2ccccc2C2=CCCCCC2)C2CC2)c1Cl` [I.51], in data set [1], the logP is on record as 5.06. In addition, the Efficacy in the data set with Sphaerotheca fuliginea worked out at 83%; with Puccinia recondita, 88%; with Septoria tritici, 81%; with Uromyces appendiculatus (setting [2]) it was 96%.

With `Cn1cc(C(=O)N(Cc2cc(Cl)ccc2C2=CCCCCC2)C2CC2)c(C(F)F)n1` [I.57], the lipophilicity (logP) in data set [1] is 4.87. The molecule further registered an Efficacy in the data set with Pyrenophora teres (Table H2, 100 ppm, preventive) of 79%.

In general, logP refers to the decadic logarithm of the partition coefficient of the neutral form, usually between octanol and water. In general, chromatographic logP refers to a lipophilicity value derived from retention on a column.
